Reference: paper PMC7036995 (Molecules, 2020)
Read-outs that look alike come from different tables or passages of the source. Values belong to the molecule of their own block, whether it stands above or below them.

Columns and labels:
[1] = biological target: T1, human serum albumin (HSA) (Homo sapiens, UniProt P02768); test: Fluorescence spectroscopy of HSA (Trp fluorescence quenching/enhancement; KD by DynaFit); type: binding; settings: for change of HSA fluorescence with increasing ligand concentration: λEX = 295 nm, T = 310.15 K, pH 7.4, HSA 5 μM; for Kd: HSA 5 μM, pH 7.4, read-out: KD (Fluor.)
T1 construct: purchased Sigma-Aldrich; host or cells: rice
Protocol: To find out if there was any interaction when both studied compounds were present, we performed an analysis of ternary mixtures, [(HSA + Q) + R] and [(HSA + R) + Q], when the first-added compound was pre-incubated with HSA at a constant concentration and the second compound was added at variable concentrations. The concentrations of the first-added drug in the ternary system was 5 μM for Q and 400 μM for R. These concentrations were chosen as an approximate half-saturation point for both compounds.
Therefore, as in previously published research [14], we used the DynaFit software script. Data input consisted of [Ltotal] (total ligand concentrations) for the variable reactant concentrations, [Ptotal] (total protein concentration) for the fixed reactant concentration, and F/F0 for the experimentally observed value. The software calculates [Lfree] (free ligand concentration), creates a semilogarithmic plot of F/F0 vs. [Lfree] and determines the KD value by finding the halfway point in the sigmoid-shaped curve.
Fluorescence spectra were measured in triplicates on a FluoroMax 4 spectrofluorimeter (Horiba Jobin Yvon Scientific, Irvine, CA, USA), equipped with a 1.0 cm path length quartz cell. The slit widths for the excitation and emission were 3.0 nm for all measurements. […] Samples were incubated for 2 min. Buffer background was subtracted from the raw spectra. Fluorescence intensities were corrected for the absorption of excitation light and re-absorption of emitted light to decrease the inner filter using the following relationship [13]:(2) Fcor=Fobs×10^(Aex+Aem)/2 where Fcor and Fobs are the corrected and observed fluorescence intensities, respectively. Aex and Aem are the absorbance values of the experimental solution (including all ligands) at excitation and emission wavelengths, respectively. Corrected spectra were smoothed to minimize the influence of the signal noise.
Fluorescence spectral data after correction and smoothing were used to calculate the dissociation constant (KD) for all studied systems. For evaluation and logarithmic plot fitting we used DynaFit software (version 4.0, BioKin Ltd., Watertown, MA, USA, http://www.biokin.com/dynafit/index.html) using a custom-written script.

[2] = biological target: T2, bovine serum albumin (BSA) (Bos taurus, UniProt P02769); settings: λEX = 295 nm, T = 310.15 K, pH 7.4, BSA 5 μM
Protocol: Conditions: T = 310.15 K, pH = 7.4.
Conditions: λEX = 295 nm, T = 310.15 K, pH = 7.4. The HSA and BSA concentrations were 5 μM; FA concentrations were 0.52, 1.04, 2.08, 4.16, 8.33, 16.66, 33.33, 66.66 and 133.33 μM. R concentrations were 15.6, 31.25, 62.5, 125, 250, 500, 1000, 2000 and 4000 μM.
Fluorescence spectra were measured in triplicates on a FluoroMax 4 spectrofluorimeter (Horiba Jobin Yvon Scientific, Irvine, CA, USA), equipped with a 1.0 cm path length quartz cell. The slit widths for the excitation and emission were 3.0 nm for all measurements. The temperatures used for the measurements were 298.15 K, 303.15 K and 310.15 K, respectively. Samples were incubated for 2 min. Buffer background was subtracted from the raw spectra. Fluorescence intensities were corrected for the absorption of excitation light and re-absorption of emitted light to decrease the inner filter using the following relationship [13]:(2) Fcor=Fobs×10^(Aex+Aem)/2 where Fcor and Fobs are the corrected and observed fluorescence intensities, respectively. Aex and Aem are the absorbance values of the experimental solution (including all ligands) at excitation and emission wavelengths, respectively. Corrected spectra were smoothed to minimize the influence of the signal noise.

HSA = settings: cited from earlier work; for Kd: Sudlow's Site 1
human serum proteins = settings: concentration range 0.01 to 10 mg/L, equilibrium dialysis; cited from earlier work
[3] = biological target: T2, bovine serum albumin (BSA); settings: Site 1 of BSA; read-out: dissociation constant KD; cited from earlier work
[4] = biological target: T1, human serum albumin (HSA); test: Microscale thermophoresis (MST) with RED-NHS labeled HSA; type: binding
Protocol: We performed a full set of MST measurements for mixtures where R was the compound with the concentration gradient.
Figure 9 The MST binding curves for all studied systems. Conditions: T = 297.05 K, pH = 7.4. The concentration of HSA was 20 nM, the starting concentrations of R were 7.15 mM, c(Q) in the ternary system was 20 nM.
For [(HSA + Q) + R] system it was possible to additionally derive KD value from the increase in fluorescence in the initial capillary scans. The mechanism of this feature is the same as in the regular fluorescence experiment (Figure 5).
The MST measurements were performed on Monolith NT.115 (NanoTemper Technologies, GmbH, Germany) instrument using Premium capillaries. HSA sample was labeled using RED-NHS protein labeling kit. Assay buffer was PBS with added 0.1% Pluronic F-127 as the surface agent. Ligand samples were dissolved in DMSO and then diluted with the assay buffer to the final concentration. Serial dilutions of the ligand were prepared, the protein was then added and the mixtures were incubated for 10 min at laboratory temperature. Each experiment was performed in three parallel measurements. The results were evaluated in the instrument software (MO.Control v1.6, NanoTemper Technologies, GmbH, Germany).

T1 sequence (P02768 25-609): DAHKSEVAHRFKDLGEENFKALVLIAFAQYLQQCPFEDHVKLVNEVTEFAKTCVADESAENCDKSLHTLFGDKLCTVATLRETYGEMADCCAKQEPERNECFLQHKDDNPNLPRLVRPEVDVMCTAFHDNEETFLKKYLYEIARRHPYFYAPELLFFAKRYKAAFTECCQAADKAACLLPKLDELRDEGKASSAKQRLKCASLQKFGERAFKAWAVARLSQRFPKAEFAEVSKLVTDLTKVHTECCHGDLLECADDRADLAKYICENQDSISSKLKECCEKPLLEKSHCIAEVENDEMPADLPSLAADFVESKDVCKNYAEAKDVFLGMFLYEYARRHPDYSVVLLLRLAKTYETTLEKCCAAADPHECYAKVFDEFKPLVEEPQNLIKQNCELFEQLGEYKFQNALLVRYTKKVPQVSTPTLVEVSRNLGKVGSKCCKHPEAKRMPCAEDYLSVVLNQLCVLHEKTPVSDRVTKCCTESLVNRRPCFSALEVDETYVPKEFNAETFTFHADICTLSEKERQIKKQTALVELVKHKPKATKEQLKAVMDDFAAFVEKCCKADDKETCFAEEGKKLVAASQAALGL
T2 sequence (P02769 25-607): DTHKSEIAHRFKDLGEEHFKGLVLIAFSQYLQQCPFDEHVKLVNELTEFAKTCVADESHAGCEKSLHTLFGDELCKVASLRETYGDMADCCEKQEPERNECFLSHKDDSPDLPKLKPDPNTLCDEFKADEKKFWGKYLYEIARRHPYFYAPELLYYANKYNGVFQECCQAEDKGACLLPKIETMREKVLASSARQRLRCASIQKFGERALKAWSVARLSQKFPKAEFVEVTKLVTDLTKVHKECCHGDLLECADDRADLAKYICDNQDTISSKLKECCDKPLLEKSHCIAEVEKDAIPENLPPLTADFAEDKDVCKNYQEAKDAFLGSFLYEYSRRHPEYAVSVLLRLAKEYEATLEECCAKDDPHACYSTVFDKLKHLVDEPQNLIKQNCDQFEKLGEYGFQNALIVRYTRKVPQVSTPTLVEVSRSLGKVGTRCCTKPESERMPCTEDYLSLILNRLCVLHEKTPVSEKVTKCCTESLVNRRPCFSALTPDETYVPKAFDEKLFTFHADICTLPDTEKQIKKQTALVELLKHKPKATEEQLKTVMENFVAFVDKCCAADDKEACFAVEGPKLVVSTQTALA

change of HSA fluorescence with increasing ligand concentration [1]: remains more or less constant
change of BSA fluorescence with increasing ligand concentration [2]: decrease
Compound: CC(=O)O[C@H]1C[C@@]2(C)[C@@H](C[C@@H](O)[C@H]3[C@@]4(C)CC[C@@H](O)[C@@H](C)[C@@H]4CC[C@@]32C)/C1=C(\CCC=C(C)C)C(=O)O [fusidic acid]

Kd ([1]; binary system HSA + ligand): 2.28 ± 0.61 µM
Kd ([1]; ternary system [(HSA + R) + Q]: HSA pre-incubated with 400 μM R, Q varied): 34.7 ± 15.1 µM
Compound: O=c1c(O)c(-c2ccc(O)c(O)c2)oc2cc(O)cc(O)c12 [quercetin]
Kd (HSA; ref 13): 6.1 µM
Kd (HSA; ref 14): 6.48 µM
bound to HSA (HSA): 99%

KD for binding of R compared with KD for Q ([1]; HSA): more than hundredfold larger
Kd ([1]; binary system HSA + ligand): 1220 ± 677 µM
Kd ([1]; ternary system [(HSA + Q) + R]: HSA pre-incubated with 5 μM Q, R varied): 593 ± 90.6 µM
change of HSA fluorescence with increasing ligand concentration [1]: increases
Kd ([4]; binary system HSA + R, T = 297.05 K, pH 7.4, HSA 20 nM, read-out: KD (MST)): 775 ± 75.3 µM
Kd ([4]; ternary system [(HSA + Q) + R], c(Q) 20 nM, HSA 20 nM, T = 297.05 K, pH 7.4, read-out: KD (MST)): 112 ± 24.6 µM
Kd ([4]; ternary system [(HSA + Q) + R], from increase in fluorescence in the initial capillary scans, c(Q) 20 nM, HSA 20 nM, read-out: KD (MST Fluorescence)): 168 ± 29.8 µM
Compound: CCOC(=O)[C@H](CCc1ccccc1)N[C@@H](C)C(=O)N1[C@H](C(=O)O)C[C@@H]2CCC[C@@H]21 [ramipril]
bound to human serum proteins (human serum proteins): 73%
Kd [3]: 28.5 µM

Compound: C[C@H](N[C@@H](CCc1ccccc1)C(=O)O)C(=O)N1[C@H](C(=O)O)C[C@@H]2CCC[C@@H]21 [ramiprilat]
bound to human serum proteins (human serum proteins): 56%
